# In ChEMBL document CHEMBL1201862, “PubChem BioAssay data set” (2004):
# Active and inactive are the calls of the source. Cut-off read from the data, not from the text of the source, for most assays here: actives have a measured EC50 and inactives only a lower limit.
# What was measured:
# [1] = Luminescence Cell-Based Dose Retest to Confirm Inhibitors of Cancer Stem Cells. [Related pubchem assays (depositor defined):AID2717, AID2721]; format: functional; details: Homo sapiens
# Cytochrome P450 2D6 = Cytochrome P450 2D6 (Homo sapiens, UniProt P10635);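 note: CYP2D6 member of a cytochrome P450 panel assay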
# Chain of Cytochrome P450 2D6 (P10635 whole entry): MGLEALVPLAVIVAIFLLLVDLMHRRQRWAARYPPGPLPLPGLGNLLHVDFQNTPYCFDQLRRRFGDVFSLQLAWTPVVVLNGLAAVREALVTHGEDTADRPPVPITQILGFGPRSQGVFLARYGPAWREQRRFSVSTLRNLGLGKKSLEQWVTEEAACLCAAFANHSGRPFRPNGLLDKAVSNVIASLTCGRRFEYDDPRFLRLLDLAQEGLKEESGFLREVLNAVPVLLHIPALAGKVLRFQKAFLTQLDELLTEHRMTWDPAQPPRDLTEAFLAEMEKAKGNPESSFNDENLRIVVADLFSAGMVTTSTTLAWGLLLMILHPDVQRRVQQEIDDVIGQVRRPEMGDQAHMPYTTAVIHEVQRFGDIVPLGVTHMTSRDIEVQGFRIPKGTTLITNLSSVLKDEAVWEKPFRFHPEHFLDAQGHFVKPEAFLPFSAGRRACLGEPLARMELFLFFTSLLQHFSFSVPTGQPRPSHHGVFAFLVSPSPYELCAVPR
# [2] = Luminescence Cell-Based Dose Response HTS to Identify Inhibitors of 5'UTR Stem-Loop Driven Prion Protein mRNA Translation in H4 Neuroglioblastoma Cells. [Related pubchem assays: 1827 (Project Summary), 1813 (Primary HTS)]; format: functional
# [3] = inhibitors of SNCA 5'UTR-driven reporter translation, confirmation, H4 neuroglioma cells, luminescence (AID 1988); format: functional, cell-based
# [4] = inhibitors of firefly luciferase expression or activity, dose response, H4 neuroglioma cells, luminescence (AID 1990); format: functional, cell-based
# [5] = molecular target: T1, Heat shock factor protein 1 (Mus musculus, UniProt P38532); assay: inhibition of MG132-induced HSE-luciferase signal, confirmation, cell-based, NIH3T3, luminescence, dose retest (AID 2382); format: functional;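 note: NIH3T3 fibroblasts with HSF1-driven luciferase reporter stressed by proteasome inhibitor MG132; luminescence from HSF1-driven luciferase expression after 8 hours of MG132 stress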
# T1 sequence (P38532 whole entry): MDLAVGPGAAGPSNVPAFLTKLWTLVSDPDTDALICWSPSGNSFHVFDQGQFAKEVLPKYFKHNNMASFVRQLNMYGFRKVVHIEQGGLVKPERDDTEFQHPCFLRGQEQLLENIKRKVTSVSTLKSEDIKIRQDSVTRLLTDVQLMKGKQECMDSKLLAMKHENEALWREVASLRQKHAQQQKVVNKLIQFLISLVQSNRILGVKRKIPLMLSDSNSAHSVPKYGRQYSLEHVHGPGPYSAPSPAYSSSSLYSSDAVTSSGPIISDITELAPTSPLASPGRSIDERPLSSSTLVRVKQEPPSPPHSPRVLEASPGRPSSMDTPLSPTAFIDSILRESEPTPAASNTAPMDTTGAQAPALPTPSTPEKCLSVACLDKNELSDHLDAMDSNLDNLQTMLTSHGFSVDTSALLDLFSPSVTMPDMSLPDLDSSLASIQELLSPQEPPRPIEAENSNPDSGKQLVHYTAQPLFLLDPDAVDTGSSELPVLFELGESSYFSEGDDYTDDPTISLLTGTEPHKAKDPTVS
# [6] = molecular target: T2, Corticotropin-releasing factor receptor 2/Corticotropin-releasing factor-binding protein (Homo sapiens, UniProt P24387+Q13324); assay: Dose Response confirmation of uHTS hits for small molecule antagonists of the CRF-binding protein and CRF-R2 receptor complex.; format: functional; details: read-out: IC50_Mean
# T2 sequence (Q13324 whole entry): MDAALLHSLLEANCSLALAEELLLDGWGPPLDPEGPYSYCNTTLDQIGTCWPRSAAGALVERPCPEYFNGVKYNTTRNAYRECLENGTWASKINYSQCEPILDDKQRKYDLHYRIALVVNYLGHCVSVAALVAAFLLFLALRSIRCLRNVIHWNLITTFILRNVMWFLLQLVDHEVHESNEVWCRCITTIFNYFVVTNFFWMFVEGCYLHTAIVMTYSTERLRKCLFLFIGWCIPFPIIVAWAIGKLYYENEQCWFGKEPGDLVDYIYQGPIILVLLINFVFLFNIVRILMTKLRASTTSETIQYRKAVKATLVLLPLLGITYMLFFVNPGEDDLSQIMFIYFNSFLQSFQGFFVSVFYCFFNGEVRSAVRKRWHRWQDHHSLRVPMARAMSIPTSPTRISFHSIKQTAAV
# T2 sequence (P24387 whole entry): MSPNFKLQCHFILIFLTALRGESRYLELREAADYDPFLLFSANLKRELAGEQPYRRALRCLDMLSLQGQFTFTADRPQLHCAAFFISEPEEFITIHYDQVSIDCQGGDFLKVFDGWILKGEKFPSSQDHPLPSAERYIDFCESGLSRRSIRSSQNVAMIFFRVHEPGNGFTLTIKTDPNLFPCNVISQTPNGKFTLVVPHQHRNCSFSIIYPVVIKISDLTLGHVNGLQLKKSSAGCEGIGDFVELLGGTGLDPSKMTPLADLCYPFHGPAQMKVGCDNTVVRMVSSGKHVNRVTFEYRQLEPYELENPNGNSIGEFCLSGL
# [7] = molecular target: T2, Corticotropin-releasing factor receptor 2/Corticotropin-releasing factor-binding protein; assay: activators of CRF receptor 2 with binding protein – uHTS hits, confirmation (AID 602473); format: functional; details: read-out: EC50_Mean
# [8] = HEp-2 cell cytotoxicity, dose response, cytotoxicity control for RSV inhibitor project, HTS (AID 2410); format: functional; details: human respiratory syncytial virus
# Protein RecA = molecular target: T3, Protein RecA (Mycobacterium tuberculosis, UniProt P9WHJ3); assay: Fluorescence Cell-Free Homogeneous Dose Retest to Identify Inhibitors of RecA-Intein Splicing Activity. [Related pubchem assays (depositor defined):AID2097, AID2223, AID489010, AID492950]; format: functional
# T3 sequence (P9WHJ3 whole entry): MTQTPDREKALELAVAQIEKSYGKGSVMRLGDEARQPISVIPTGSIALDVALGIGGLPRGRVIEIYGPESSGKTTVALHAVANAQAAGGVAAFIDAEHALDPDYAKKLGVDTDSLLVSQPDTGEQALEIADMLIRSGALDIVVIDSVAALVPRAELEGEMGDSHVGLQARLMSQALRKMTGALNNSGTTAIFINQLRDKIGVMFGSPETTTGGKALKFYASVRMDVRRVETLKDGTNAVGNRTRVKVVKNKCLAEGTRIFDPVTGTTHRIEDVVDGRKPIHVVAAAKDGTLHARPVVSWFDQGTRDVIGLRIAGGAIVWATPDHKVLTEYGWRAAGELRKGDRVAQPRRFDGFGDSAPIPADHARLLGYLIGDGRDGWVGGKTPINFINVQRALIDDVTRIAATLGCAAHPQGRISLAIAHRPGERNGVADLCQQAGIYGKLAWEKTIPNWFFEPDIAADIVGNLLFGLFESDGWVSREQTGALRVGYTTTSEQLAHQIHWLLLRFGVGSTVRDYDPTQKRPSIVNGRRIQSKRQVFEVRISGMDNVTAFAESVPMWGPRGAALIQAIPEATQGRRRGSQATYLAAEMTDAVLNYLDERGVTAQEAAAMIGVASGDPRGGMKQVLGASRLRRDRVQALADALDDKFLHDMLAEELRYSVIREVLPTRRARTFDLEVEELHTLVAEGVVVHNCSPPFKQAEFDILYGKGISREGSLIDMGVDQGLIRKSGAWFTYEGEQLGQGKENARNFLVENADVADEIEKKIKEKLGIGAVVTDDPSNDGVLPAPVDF
# [9] = molecular target: T4, Replicative DNA helicase DnaB (Mycobacterium tuberculosis, UniProt P9WMR3); assay: DnaB intein splicing inhibitors, dose response, biochemical, cell-free fluorescence (AID 449749); format: functional
# T4 sequence (P9WMR3 whole entry): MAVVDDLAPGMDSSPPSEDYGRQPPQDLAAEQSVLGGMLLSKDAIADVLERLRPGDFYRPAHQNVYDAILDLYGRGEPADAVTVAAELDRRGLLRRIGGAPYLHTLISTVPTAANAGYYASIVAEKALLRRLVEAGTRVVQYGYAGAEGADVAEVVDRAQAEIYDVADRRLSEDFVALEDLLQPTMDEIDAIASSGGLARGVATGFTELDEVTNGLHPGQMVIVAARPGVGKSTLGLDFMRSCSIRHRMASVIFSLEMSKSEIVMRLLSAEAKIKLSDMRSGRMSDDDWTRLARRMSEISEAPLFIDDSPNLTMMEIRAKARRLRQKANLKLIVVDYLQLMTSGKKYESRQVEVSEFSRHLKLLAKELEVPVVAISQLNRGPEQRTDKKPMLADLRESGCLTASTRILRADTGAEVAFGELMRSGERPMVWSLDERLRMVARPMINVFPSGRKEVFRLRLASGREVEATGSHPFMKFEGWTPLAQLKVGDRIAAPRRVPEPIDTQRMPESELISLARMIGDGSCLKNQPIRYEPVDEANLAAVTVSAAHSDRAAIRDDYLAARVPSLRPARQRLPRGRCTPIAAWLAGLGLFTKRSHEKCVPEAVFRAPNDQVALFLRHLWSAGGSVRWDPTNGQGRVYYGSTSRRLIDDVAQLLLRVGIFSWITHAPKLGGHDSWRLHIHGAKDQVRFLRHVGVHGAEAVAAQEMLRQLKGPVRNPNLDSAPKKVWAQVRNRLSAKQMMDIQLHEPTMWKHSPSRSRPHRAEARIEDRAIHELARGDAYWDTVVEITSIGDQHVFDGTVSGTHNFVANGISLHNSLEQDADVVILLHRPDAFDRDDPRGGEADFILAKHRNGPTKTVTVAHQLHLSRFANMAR
# Cytochrome P450 2C9 = Cytochrome P450 2C9 (Homo sapiens, UniProt P11712)
# Chain of Cytochrome P450 2C9 (P11712 whole entry): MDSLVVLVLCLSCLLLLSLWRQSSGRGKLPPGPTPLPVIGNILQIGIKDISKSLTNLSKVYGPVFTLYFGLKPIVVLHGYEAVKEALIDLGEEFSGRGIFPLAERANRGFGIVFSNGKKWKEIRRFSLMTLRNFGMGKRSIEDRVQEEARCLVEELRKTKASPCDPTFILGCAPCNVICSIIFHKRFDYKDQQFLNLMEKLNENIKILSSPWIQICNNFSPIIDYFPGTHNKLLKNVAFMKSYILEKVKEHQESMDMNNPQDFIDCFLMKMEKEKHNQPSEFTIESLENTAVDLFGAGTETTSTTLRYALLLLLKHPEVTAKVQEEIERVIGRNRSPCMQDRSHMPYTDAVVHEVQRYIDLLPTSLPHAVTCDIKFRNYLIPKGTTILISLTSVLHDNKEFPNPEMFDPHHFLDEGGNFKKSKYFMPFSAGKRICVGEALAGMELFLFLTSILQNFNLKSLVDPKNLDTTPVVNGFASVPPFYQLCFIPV
# [10] = inhibitors of intracellular T. cruzi replication, confirmation, NIH3T3 host cells, beta-gal luminescence (AID 2044); format: functional, cell-based;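 note: intracellular parasites grown in NIH/3T3 mouse fibroblasts as host cells; luminescent beta-galactosidase reporter signal from transgenic T. cruzi replicating inside host cells; inhibitors lower the luminescence signal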
# [11] = cytotoxicity toward NIH3T3 fibroblasts, dose response, counter-screen, cell-based, ATP luminescence, mouse fibroblasts (AID 2010); format: functional;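 note: cells exposed to compound for about 90 hours before reading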
smiles,measurement,setting,value
Nc1ccc(CCN2CCN(c3cccc(C(F)(F)F)c3)CC2)cc1,AC50,[1],1.35 µM (active)
same,AC50,Cytochrome P450 2D6,12.6 µM (inconclusive)
COCCN(Cc1ccccc1)C(S)=Nc1ccc(Cl)cc1,EC50,[2],> 120 µM (not active)
same,EC50,[3],16.8 µM (active)
same,EC50,[4],> 120 µM (not active)
same,EC50,[5],30.3 µM (active)
CCOc1ccccc1NC(=O)C1CCCN1S(=O)(=O)c1ccccc1C(F)(F)F (stereo unspecified),IC50,[6],> 47.1 µM (inactive)
same,EC50,[7],> 53 µM (inactive)
CCOc1ccc(S(=O)(=O)N2CCC(C(=O)NCC(=O)Nc3cccc(Cl)c3C)CC2)cc1,CC50,[8],49.1 µM (active)
CCC(=O)c1cc(F)c(N2CCN(C(=O)Cc3ccccc3)CC2)cc1C,CC50,[8],17 µM (active)
COc1cccc(Nc2ncc(C#N)c(N)n2)c1,EC50,[2],14.2 µM (active)
same,EC50,[3],14.5 µM (active)
same,EC50,[4],16.4 µM (active)
CCc1ccc(CNn2cnnc2SCC(=O)NC(C)(C)C)cc1,EC50,[2],> 120 µM (not active)
same,EC50,[3],> 120 µM (not active)
same,EC50,[4],> 120 µM (not active)
CC(C)(C)c1cc(C(=O)O)nn1-c1ccccc1,IC50,[6],> 47.1 µM (inactive)
same,EC50,[7],> 53 µM (inactive)
COc1ccc(OCCCC(=O)Nc2cccnc2)cc1,IC50,[6],> 47.1 µM (inactive)
same,EC50,[7],> 53 µM (inactive)
c1ccc(Sc2ncnc3ccccc23)cc1,EC50,Protein RecA,11.2 µM (active)
same,AC50,[9],21.9 µM (active)
O=C(COc1ncnc2sccc12)N1CCN(C(=O)c2ccco2)CC1,EC50,[2],> 120 µM (not active)
same,EC50,[3],> 120 µM (not active)
same,EC50,[4],> 120 µM (not active)
CN(C)c1ccc(-c2nc3n(n2)C(c2cccnc2)C2=C(O)CC(C)(C)CC2=N3)cc1 (stereo unspecified),AC50,Cytochrome P450 2C9,28.2 µM (inconclusive)
same,AC50,Cytochrome P450 2D6,17.8 µM (inconclusive)
same,EC50,[5],> 195 µM (not active)
Cc1ccc(NC(=O)CSc2nc3ccccc3c(=O)n2CCCC(=O)NCCCN2CCOCC2)cc1,IC50,[6],> 47.1 µM (inactive)
same,EC50,[7],> 53 µM (inactive)
CCC(NN1CCCCC1)=C1C(=O)NC(=O)NC1=O,EC50,[2],> 120 µM (not active)
same,EC50,[3],10.2 µM (active)
same,EC50,[4],11.9 µM (active)
COc1ccc(NC(=O)N2CCN(c3nc(-c4cccc(OC)c4)cs3)CC2)cc1,CC50,[8],9.75 µM (active)
CC(=O)N(C(C)=O)c1ncnc2c1c(-c1ccc(Cl)cc1)nn2C(C)(C)C,EC50,[2],20.1 µM (active)
same,EC50,[10],0.512 µM (active)
same,EC50,[3],25.1 µM (active)
same,EC50,[4],13.1 µM (active)
same,EC50,[11],4.21 µM (active)
Cc1nn(Cc2ccccc2Cl)c(C)c1NC(=O)c1nc2ncccn2n1,IC50,[6],> 47.1 µM (inactive)
same,EC50,[7],> 53 µM (inactive)
CCc1cccc(NC(=O)c2cccc3c2C(=O)N(C2CCCCC2)C3)c1,CC50,[8],38.1 µM (active)
COC(=O)Nc1nn(-c2ccc(OC)cc2)c(=O)c(C#N)c1C,EC50,Protein RecA,6.31 µM (active)
same,AC50,[9],25.9 µM (active)
COCc1cc(O)n2nc(-c3ccccc3)cc2n1,IC50,[6],> 47.1 µM (inactive)
same,EC50,[7],> 53 µM (inactive)
Cc1ccc(C(=O)COc2cc(O)c3c(=O)cc(-c4ccccc4)oc3c2)cc1,IC50,[6],> 47.1 µM (inactive)
same,EC50,[7],> 53 µM (inactive)
CCOc1ccccc1N(C)C(=O)Cn1ncc2c3ccccc3nc-2c1O,IC50,[6],> 47.1 µM (inactive)
same,EC50,[7],> 53 µM (inactive)
CCOC(=O)c1ccc(N2CN(CC)CN=C2S)cc1,EC50,[2],> 120 µM (not active)
same,EC50,[3],> 120 µM (not active)
same,EC50,[4],> 120 µM (not active)
CCOC(=O)c1[nH]c2ccccc2c1NC(=O)Nc1ccc(OC)cc1,IC50,[6],> 47.1 µM (inactive)
same,EC50,[7],> 53 µM (inactive)
CC(C)C(NC(=O)c1ccco1)C(=O)NC1CCCCCC1 (stereo unspecified),IC50,[6],> 47.1 µM (inactive)
same,EC50,[7],> 53 µM (inactive)
O=C(COC(=O)c1ccncc1)Nc1cc(Cl)ccc1Cl,IC50,[6],> 47.1 µM (inactive)
same,EC50,[7],> 53 µM (inactive)
C/C(CC(=O)NCc1ccco1)=N\NC(=O)c1ccc([N+](=O)[O-])cc1Cl,EC50,Protein RecA,5.56 µM (active)
same,AC50,[9],10.2 µM (active)
Nc1ccc(C(=O)N/N=C/c2cn(Cc3ccc(F)cc3)c3ccccc23)cc1,EC50,[2],17.7 µM (active)
same,EC50,[3],7.7 µM (active)
same,EC50,[4],10.1 µM (active)
COC(=O)N/N=C\c1ccc(OC(=O)c2ccco2)cc1,EC50,Protein RecA,16.7 µM (active)
same,AC50,[9],44.6 µM (active)
